Data from patent US7741294B1, “Non-standard nucleobases implementing the isocytidine and isoguanosine hydrogen bonding patterns” (priority 2005, dated 2010).
Read-outs that look alike come from different tables or passages of the source.

Legend:
[1] = pKa by spectrophotometric titration; format: physicochemical; conditions: pH 2.8 to 13.7, 240-350 nm
Experimental: The pKa of the nucleoside analog was determined by spectrophotometric titration (pH 2.8 to 13.7) [Kazimierczuk, Z., Shugar, D. (1974) Acta Biochim. Pol., 21, 455-463.1 at 240-350 nm to give values for pK1 and pK2 as 4.3 (±0.1) and 9.9 (±0.2), respectively.

[2] = keto:enol tautomeric equilibrium from UV spectra in dioxane:water mixtures, extrapolated to pure water; format: physicochemical; conditions: log fraction of enol vs ET(30), extrapolated to ET(30) of pure water (63.1)
Excerpt: The procedure of Voegel et al. [Voegel, J. J., von Krosigk, U., Benner, S. A. (1993) J. Org. Chem., 58, 7542-7547.] was then used to estimate a value of the keto:enol tautomers in pure water for dC7 isoG. This procedure exploits the fact that in nonpolar solvents, the UV spectra for both disoG and C7 isoG shift from their form in pure water (which resembles the N-methylated derivatives) to a form that resembles the UV spectra of the O-methylated derivatives. This is interpreted as evidence that the tautomeric equilibrium shifts from one favoring the keto tautomer in pure water to one favoring the enol tautomer in pure dioxane.
To obtain quantitative data, the ratio of the extinction coefficients at two wavelengths (λ=296 and 255 nm for disoG and λ=305 and 254 nm for dC7 isoG), chosen to maximize the difference between the keto and enol forms, was chosen as a metric for the tautomeric equilibrium constant in dioxane:water mixtures in varying proportions. This was plotted against the Dimroth ET(30) value, which provides a measure of the local dielectric constant [Kosower, E. M. (1958) J. Am. Chem. Soc., 80, 3253-3260] [Dimroth, v. K., Reichardt, C., Siepmann, T., Bohlmann, F. (1963) Liebigs Ann. Chem., 661, 1-37.] [Reichardt, C., Harbusch-Goernert, E. (1983) Liebigs Ann. Chem., 721-743] [Gordon, A., Katritzky, A. R. (1968) Tetrahedron Lett., 23, 2767-2770.] […]

[3] = comparison value for the natural nucleoside; cited from earlier work

Nc1[nH]c(=O)nc2c1ccn2[C@H]1C[C@H](O)[C@@H](CO)O1 [dC7 isoG, 2′-deoxy-7-deaza-isoguanosine]
pK1 [1]: 4.3 (±0.1)
pK2 [1]: 9.9 (±0.2)
KTAUT (=[keto]/[enol]) [2]: ≈ 10^3

Nc1nc2c(ncn2[C@@H]2O[C@H](CO)[C@@H](O)[C@H]2O)c(=O)[nH]1 [guanosine]
KTAUT (=[keto]/[enol]) [3]: 10^4-10^5
